Patent US8962032B2, “Modulator” (The Queen's University of Belfast, priority 2009, dated 2015)

Test system: C57bl/6 bone marrow derived macrophages
Experiment: LPS-induced TNFα and IL-6 in C57bl/6 BMDM with controls
Assay type: cell-based
Settings: C57bl/6 BMDM re-stimulated with 1 ng/ml LPS ± 25 μg/ml nanoparticles or controls
Method: FIG. 9 illustrates reduction of TNFα and IL-6 production from C57bl/6 bone marrow derived macrophages (BMDM) incubated with LPS and α2,8 sialic acid conjugated PLGA nanoparticles. The BMDM were stimulated with 1 ng/ml LPS overnight to up-regulate Siglec-E. Cells were washed twice in serum-free DMEM prior to resting for 2 hr. Cells were re-stimulated with 1 ng/ml LPS±α2,8 sialic acid conjugated PLGA nanoparticles (NP) or appropriate controls—Unconjugated (nude) NP, Sialic acid washed, but unconjugated NP, Sialic acid at same concentration as NP or nanoparticles conjugated to the non-Siglec binding glucosamine. TNFα and IL-6 was measured by ELISA. One way ANOVA was used to determine significance.
4×10^4/well C57bl/6 bone marrow derived macrophages were stimulated with 1 ng/ml LPS overnight to up-regulate Siglec-E. Cells were washed twice in serum-free DMEM prior to resting for 2 hr. The results of cells re-stimulated with 1 ng/ml LPS±α2,8 sialic acid conjugated PLGA nanoparticles (NP) or appropriate controls—Unconjugated (nude) nanoparticles, Sialic acid washed—but unconjugated nanoparticles, Sialic acid at same concentration as nanoparticles or nanoparticles conjugated to the non-Siglec binding glucosamine are shown. TNFα and IL-6 was measured by ELISA. One way ANOVA with post-hoc Tukey test was used to determine significance. P=0.001.

alpha 2-8 diacetylneuraminic acid [sialic acid]
IL-6 (ELISA): insufficient to cause the effect observed | TNFα (ELISA): insufficient to cause the effect observed
